Results on one substance are retold here after patent US9248163B2, “Insulin-like growth factor binding protein 7 for treatment of cancer” (University of Massachusetts, priority 2007, dated 2016).

Assay [1] relates to BRAF-MEK-ERK signaling in SK-MEL-28 cells. Briefly: Immunoblot analysis of BRAF-MEK-ERK signaling (phospho-ERK, activated MEK1/2, RKIP). The format is cell-based, human. The procedure: To prepare cell extracts, cells were lysed in Laemmli buffer; for phospho-proteins, cells were lysed in the presence of a phosphatase inhibitor cocktail (Sigma). To prepare conditioned media, cells were grown in Opti-MEM™ (Invitrogen) for 24 hours, and media was harvested and concentrated using Centricon™ plus 20 tubes (Millipore). Conditioned media was normalized to cell number prior to loading the gel. For the experiments shown in FIGS. 3D and 4C, rIGFBP7 was added to the culture medium at a concentration of 10 μg/ml. For the MEK/RAF inhibitor experiment of FIG. 4D, SK-MEL-28 cells were treated with 2 μg/ml or 10 μg/ml rIGFBP7, 20 μM or 40 μM of the MEK inhibitor PD98054 (Calbiochem), or 5 nM or 10 nM the RAF inhibitor GW5074 (Sigma) for 24 hours prior to harvesting cells. Proteins were resolved by SDS-PAGE and transferred to nitrocellulose. Blots were probed with the following antibodies: α-p16 (Abcam), α-acetylated H3K9 (Upstate), α-IGFBP7 (Santa Cruz), α-SMARCB1 (Abnova), α-BNIP3L (Proscience), α-BRAFV600E (Santa Cruz), α-cleaved caspase-3 p11 (Santa Cruz), α-β-actin (Sigma), α-phospho-ERK (Cell Signaling) or α-ERK (Cell Signaling).
To test this idea, rIGFBP7 was added to BRAFV600E-positive SK-MEL-28 melanoma cells, and the levels of total and activated ERK (phospho-ERK) were analyzed.
In general terms: In western blotting, separated proteins are transferred to a membrane and probed.

Assay [2] relates to primary melanocytes. Kind of assay: Proliferation assay of primary melanocytes (trypan blue exclusion). The format is cell-based, human. Particulars: 14 days after treatment. The procedure: (§1) For the proliferation assay shown in FIG. 1B, 1×10^4 cells stably expressing an shRNA were cultured in 12-well plate format, infected with BRAFV600E-expressing retrovirus and after 14 days stained with crystal violet. For all other quantitative proliferation assays, cell viability was measured by trypan blue exclusion test at the time point indicated in the relevant figure legend. Values were expressed as percent cell growth, as described in the relevant figure legend. For the proliferation assays shown in FIG. 2A, CM was replenished every 3 days, and proliferation was measured after a total of 14 days of CM treatment. Unless otherwise stated, rIGFBP7 was added to the culture medium at a concentration of 10 μg/ml.
To confirm that IGFBP7 could block cellular proliferation, purified recombinant IGFBP7 (rIGFBP7) was purified from baculovirus-infected insect cells. […] Collectively, the results of FIGS. 2A-2D indicate that following expression of BRAFV600E, melanocytes synthesize and secrete increased amounts of IGFBP7, which then acts through an autocrine/paracrine pathway to induce senescence.

The test system of assay [3] is SK-MEL-28 cells. Kind of assay: ChIP assays 24 hours following rIGFBP7 treatment. The format is cell-based, human. The procedure:
Chromatin immunoprecipitation (ChIP) assays were performed using extracts prepared 24 hours following rIGFBP7 treatment. The following antibodies were used: α-BRG1 (de La Serna et al., 2000, Mol. Cell. Biol., 20:2839-51), α-phospho-STAT1 (Upstate), and α-SMARCB1 and α-STAT1 (Santa Cruz). For ChIP experiments on the SMARCB1 promoter, primers spanning a STAT1 binding site located ˜2.4 kb upstream of the transcription start-site were used. For ChIP experiments on the BNIP3L promoter, a series of primer-pairs that covered ˜2 kb of the BNIP3L promoter were used; following addition of rIGFBP7, SMARCB1 and BRG1 were recruited to the BNIP3L promoter near the transcription start-site. ChIP products were analyzed by quantitative real-time PCR using Platinum SYBR™ Green qPCR SuperMix-UDG with Rox (Invitrogen). Calculation of fold differences was done as previously described (Pfaffl, 2001, Nucleic Acids Res., 29:e45).

The subject of assay [4] is melanocytes. Briefly: Senescence-associated β-galactosidase assay. It counts as cell-based, human. Particulars: rIGFBP7 10 μg/ml for 14 days; growth-arrested cells. The procedure:
Melanocytes infected with a retrovirus expressing either vector or BRAFV600E, or melanocytes treated with BRAFV600E/melanocyte CM or rIGFBP7 (10 μg/ml) for 14 days were washed twice with PBS (5 minutes at room temperature), fixed with 3% formaldehyde (5 minutes at room temperature), and washed three more times with PBS. Cells were then incubated at 37° C. (0% CO2) overnight in SA-β-Gal stain solution (1 mg/mL X-Gal (5-bromo-4-chloro-3-indoyl b-D-galactoside), 40 mM citric acid/sodium phosphate (pH 6.0), 5 mM potassium ferrocyanide, 5 mM potassium ferricyanide, 150 mM NaCl and 2 mM MgCl2). Cells were washed with PBS and visualized on a Zeiss Axiovert™ 40 CFL microscope. Images were captured using QCapture™ Pro version 5 software (QImaging Corporation).

Assay [5] has as its system primary melanocytes and SK-MEL-28 melanoma cells. Kind of assay: Quantitative real-time RT-PCR of the identified genes after rIGFBP7 addition. It counts as cell-based, human. The procedure: Total RNA was isolated using TRIZOL™ (Invitrogen) 7 days after retroviral transduction and puromycin selection. Reverse transcription was performed using SuperScript™ II Reverse Transcriptase (Invitrogen) as per the manufacturer's instructions, followed by quantitative real-time PCR using Platinum SYBR™ Green qPCR SuperMix-UDG with Rox (Invitrogen).
To understand the basis of this differential response, expression of the 17 identified genes was analyzed in primary melanocytes and BRAFV600E-positive SK-MEL-28 melanoma cells. […] PEA15, a known regulator of BRAF-MEK-ERK signaling (Formstecher et al., 2001, Dev. Cell, 1:239-250), is required for senescence (see FIG. 1F). Thus, the lack of PEA15 induction in IGFBP7-treated SK-MEL-28 cells can explain their failure to undergo senescence.
(Quantitative PCR measures a nucleic acid by following its amplification.)

In assay [6] the test system is human melanoma cell lines. Kind of assay: Proliferation assay of human melanoma cell lines. Particulars: 24 hours, 10 μg/ml. It counts as cell-based. The procedure:
as §1
Next, the ability of IGFBP7 to block cellular proliferation in a panel of human melanoma cell lines was analyzed. The cells contained either an activating BRAF mutation (BRAFV600E; SK-MEL-28, MALME-3M, WM793B, WM39 and WM278), an activating RAS mutation (RASQ61R; SK-MEL-2, SK-MEL-103, and WM1366), or were wild type for both BRAF and RAS (CHL, SK-MEL-31, WM1321 and WM3211). For each cell line, the presence of IGFBP7 in the CM was determined by immunoblot analysis (FIG. 3A), and sensitivity to IGFBP7-induced growth inhibition was measured in a proliferation assay (FIG. 3B). The results reveal a striking inverse correlation between IGFBP7 expression and sensitivity to IGFBP7-mediated growth inhibition that correlates with the status of BRAF or RAS.

“rIGFBP7: purified recombinant human IGFBP7, C-terminal Flag-tagged, from baculovirus-infected Sf9 insect cells”: the “growth factor-induced ERK activation” value in assay [1] is “blocked”. Besides, in assay [1] (SK-MEL-28 cells), the “RAF inhibitory protein (RKIP) expression” value is listed as “upregulation”. The “levels of activated MEK1/2” value in assay [1] (SK-MEL-28 cells) was “decreased levels”. Further, in assay [1] (SK-MEL-28 cells, 24 hours, 0.2-10 μg/ml), the phospho-ERK level entry is “dose-dependent loss of phospho-ERK”. Also, the “proliferation of primary melanocytes” value in assay [2] is recorded as “blocked proliferation of primary melanocytes in a dose-dependent manner”. Also, the “STAT1 recruitment to the SMARCB1 promoter” value in assay [3] (SK-MEL-28 cells) is reported as “recruited”. In addition, the “SMARCB1 and BRG1 recruitment to the BNIP3L promoter” value in assay [3] (near the transcription start-site) is on record as “recruited”. Besides, the “senescence-associated β-galactosidase staining” value in assay [4] is “stained positively”. The “upregulation of IGFBP7 and PEA15” value in assay [5] (SK-MEL-28 cells) is reported as “neither IGFBP7 nor PEA15 were upregulated”. For the same substance, the “induction of the seven BRAFV600E-upregulated genes” value in assay [5] (melanocytes, IGFBP7 being the exception) was “six of the seven genes were induced”. In assay [5] (primary melanocytes), the BNIP3L upregulation result is on record as “only modestly upregulated”. Further, the “sensitivity to IGFBP7-mediated growth inhibition” value is recorded as “relatively insensitive” in assay [6] (cells with wild type BRAF and RAS); “highly sensitive” in assay [6] (melanoma cell lines with activating BRAF mutation (BRAFV600E)); “partially sensitive” in assay [6] (melanoma cell lines with activating RAS mutation (RASQ61R)).
